25 compounds from patent US20220169660A1, “CYCLIC AMINO-PYRAZINECARBOXAMIDE COMPOUNDS AND USES THEREOF” (SILVERBACK THERAPEUTICS, INC., priority 2019, published 2022) can be followed below.

The structures appear in SMILES notation.

The test system of experiment [1] is TGFβ/SMAD Singling Pathway SBE reporter cell line. The experiment is described as follows: TGFβ reporter assay (in vitro small molecule screening). Format: cell-based. The following applies: SBE luciferase reporter cells, TGFβ stimulation, 18 h, luminescence. On the procedure: TGFβ/SMAD Singling Pathway SBE reporter cell line was obtained from BPS Bioscience. Cells were passed, expanded, and stored in liquid nitrogen as per the supplier's instructions with the exception that growth media is changed to DMEM-C with Geneticin (DMEM supplemented with 10% fetal bovine serum, 1×NEAA, 1 mM Pyruvate, 2 mM glutamine, 50 μg/mL penicillin, 50 U/mL streptomycin and 400 μg/mL of Geneticin). The assay media was MEM supplemented with […] fetal bovine serum, 1×NEAA, 1 mM Pyruvate, 50 μg/mL penicillin and 50 U/mL streptomycin.
Test samples (at desired concentrations diluted in assay media) were added to a 96-well assay plate, 20 μL per well. Reporter cells were harvested from the tissue culture flasks by incubation in small quantity of PBS at 37° C. for two minutes after the media in the flask is removed and cells rinsed with PBS. Cells were counted and diluted in the assay media at approximately 0.5×10^6 cells/mL and then 80 μL/well of cells were added to the assay plate containing the 20 μL/well of test samples (or media only), and incubated for approximately 5-6 hours at 37° C. in a 5% CO2 humidified incubator. After that time, 15 μL of TGFβ diluted to 12 ng/mL in the assay media was added to the plate. Controls included TGFβ titration (from 50 to 0 ng/mL) without inhibitors, and media only (without cells, inhibitor or TGFβ). Plates were incubated at 37° C. in a 5% CO2 humidified incubator for 18 h. Luciferase substrate solution is subsequently added at 100 μL per well, incubated in the dark at room temperature for 15 min, and luminescence is measured using a luminometer. EC50 values and curve fits were obtained using Prism (GraphPad Software).
(Reporter assays use an easily measured gene product as a stand-in for the process of interest.)

For a further experiment, the target named is T1, TGFBR2 (Homo sapiens, UniProt P37173).
T1 construct: purchased Reaction Biology Corp
The experiment can be described thus: TGFBR2 RBC enzyme assay (Reaction Biology Corp.). It counts as biochemical. As to the method: Compounds of the disclosure were assayed by Reaction Biology Corp. using the TGFBR2 RBC enzyme assay.

T1 sequence (P37173 23-567): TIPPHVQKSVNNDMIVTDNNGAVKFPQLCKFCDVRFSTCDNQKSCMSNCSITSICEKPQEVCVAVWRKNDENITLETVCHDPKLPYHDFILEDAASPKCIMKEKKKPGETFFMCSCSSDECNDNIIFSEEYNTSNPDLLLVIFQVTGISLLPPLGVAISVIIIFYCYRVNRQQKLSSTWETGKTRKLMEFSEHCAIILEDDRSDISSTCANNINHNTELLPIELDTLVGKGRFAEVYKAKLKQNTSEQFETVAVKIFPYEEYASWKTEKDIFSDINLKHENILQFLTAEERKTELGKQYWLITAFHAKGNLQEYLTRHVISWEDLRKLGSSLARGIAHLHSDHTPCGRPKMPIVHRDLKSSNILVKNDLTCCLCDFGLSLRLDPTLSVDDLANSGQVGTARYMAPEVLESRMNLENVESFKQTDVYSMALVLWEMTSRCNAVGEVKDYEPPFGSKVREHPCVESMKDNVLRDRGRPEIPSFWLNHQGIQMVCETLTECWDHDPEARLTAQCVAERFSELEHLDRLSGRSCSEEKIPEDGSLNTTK

What is called EC50 is the concentration needed to bring the measured effect to its halfway point. For the compound `CC(C)(C)OC(=O)N1C[C@@H]2C[C@@H]1COc1cccc(c1)-c1cnc(N)c(n1)C(=O)Nc1cnccc1O2` (racemic) [Compound 35, (±)-tert-butyl(5^2,5^4-trans)-1^5-amino-9-oxo-3,6-dioxa-8-aza-1(2,6)-pyrazina-7(4,3)-pyridina-5(2,4)-pyrrolidina-2(1,3)-benzenacyclononaphane-51-carboxylate], the EC50 was over 5000 nM in experiment [1] and over 1000 nM on TGFBR2.
For `Nc1ncc2nc1C(=O)Nc1cnccc1O[C@@H]1CN[C@@H](COc3cccc-2c3)C1` (racemic) [Compound 36, (±)-(5^2,5^4-trans)-1^5-amino-3,6-dioxa-8-aza-1(2,6)-pyrazina-7(4,3)-pyridina-5(2,4)-pyrrolidina-2(1,3)-benzenacyclononaphan-9-one], the EC50 in experiment [1] is over 5000 nM; on TGFBR2, over 1000 nM.
Regarding `CC(C)(C)OC(=O)N1C[C@@H]2C[C@H]1COc1cccc(c1)-c1cnc(N)c(n1)C(=O)Nc1cnccc1O2` (racemic) [Compound 37, (±)-tert-butyl(5^2,5^4-cis)-1^5-amino-9-oxo-3,6-dioxa-8-aza-1(2,6)-pyrazina-7(4,3)-pyridina-5(2,4)-pyrrolidina-2(1,3)-benzenacyclononaphane-51-carboxylate], the EC50 was in the range of 1 to 1000 nM in experiment [1] and 100 to 1000 nM on TGFBR2.
Take `Nc1ncc2nc1C(=O)Nc1cnccc1O[C@@H]1CN[C@H](COc3cccc-2c3)C1` (racemic) [Compound 38, (±)-(5^2,5^4-cis)-1^5-amino-3,6-dioxa-8-aza-1(2,6)-pyrazina-7(4,3)-pyridina-5(2,4)-pyrrolidina-2(1,3)-benzenacyclononaphan-9-one]: the EC50 fell in the range of 1 to 1000 nM in experiment [1] and 1 to 100 nM on TGFBR2.
Regarding `CC(C)(C)OC(=O)N1C[C@H]2C[C@H]1COc1ccncc1NC(=O)c1nc(cnc1N)-c1cccc(c1)O2` (racemic) [Compound 39, (±)-tert-butyl(4^3,4^5-trans)-1^5-amino-9-oxo-3,6-dioxa-8-aza-1(2,6)-pyrazina-7(4,3)-pyridina-4(3,5)-pyrrolidina-2(1,3)-benzenacyclononaphane-41-carboxylate], the EC50 is over 5000 nM in experiment [1] and over 1000 nM on TGFBR2.
Consider `Nc1ncc2nc1C(=O)Nc1cnccc1OC[C@@H]1C[C@H](CN1)Oc1cccc-2c1` (racemic) [Compound 40, (±)-(4^3,4^5-trans)-1^5-amino-3,6-dioxa-8-aza-1(2,6)-pyrazina-7(4,3)-pyridina-4(3,5)-pyrrolidina-2(1,3)-benzenacyclononaphan-9-one], for which the EC50 in experiment [1] was 1000 to 5000 nM; on TGFBR2, over 1000 nM.
As to `CC(C)(C)OC(=O)N1C[C@@H]2C[C@H]1COc1ccncc1NC(=O)c1nc(cnc1N)-c1cccc(c1)O2` (racemic) [Compound 41, (±)-tert-butyl(4^3,4^5-cis)-1^5-amino-9-oxo-3,6-dioxa-8-aza-1(2,6)-pyrazina-7(4,3)-pyridina-4(3,5)-pyrrolidina-2(1,3)-benzenacyclononaphane-41-carboxylate], the EC50 in experiment [1] was 1 to 1000 nM.
Turning to `Nc1ncc2nc1C(=O)Nc1cnccc1OC[C@@H]1C[C@@H](CN1)Oc1cccc-2c1` (racemic) [Compound 42, (±)-(4^3,4^5-cis)-1^5-amino-3,6-dioxa-8-aza-1(2,6)-pyrazina-7(4,3)-pyridina-4(3,5)-pyrrolidina-2(1,3)-benzenacyclononaphan-9-one], the EC50 was 1 to 1000 nM in experiment [1] and 100 to 1000 nM on TGFBR2.
Turning to `Nc1ncc2nc1C(=O)Nc1cnccc1NCCOCCOCCOc1cccc-2c1` [Compound 1, 2^5-amino-9,12,15-trioxa-4,6-diaza-2(2,6)-pyrazina-5(3,4)-pyridina-1(1,3)-benzenacyclopentadecaphan-3-one], the EC50 was over 5000 nM in experiment [1] and over 1000 nM on TGFBR2.
Consider `Nc1ncc2nc1C(=O)Nc1cnccc1NCCCCOc1cccc-2c1` [Compound 2, 2^5-amino-11-oxa-4,6-diaza-2(2,6)-pyrazina-5(3,4)-pyridina-1(1,3)-benzenacycloundecaphan-3-one], for which the EC50 in experiment [1] was over 5000 nM; at TGFBR2, over 1000 nM.
Taken in the same sequence, the figures for `Nc1ncc2nc1C(=O)Nc1cnccc1NCCCCCOc1cccc-2c1` [Compound 3, 2^5-amino-12-oxa-4,6-diaza-2(2,6)-pyrazina-5(3,4)-pyridina-1(1,3)-benzenacyclododecaphan-3-one] were over 5000 nM and over 1000 nM.
On to `Nc1ncc2nc1C(=O)Nc1cnccc1NCCCOc1cccc-2c1` [Compound 4, 2^5-amino-10-oxa-4,6-diaza-2(2,6)-pyrazina-5(3,4)-pyridina-1(1,3)-benzenacyclodecaphan-3-one], for which the EC50 in experiment [1] was 1 to 1000 nM; at TGFBR2 it was 1 to 100 nM.
Taken in the same sequence, the figures for `CN1CCCCOc2cccc(c2)-c2cnc(N)c(n2)C(=O)Nc2cnccc21` [Compound 5, 2^5-amino-6-methyl-11-oxa-4,6-diaza-2(2,6)-pyrazina-5(3,4)-pyridina-1(1,3)-benzenacycloundecaphan-3-one] were 1 to 1000 nM and 1 to 100 nM.
With `CN1CCCOc2cccc(c2)-c2cnc(N)c(n2)C(=O)Nc2cnccc21` [Compound 6, 2^5-amino-6-methyl-10-oxa-4,6-diaza-2(2,6)-pyrazina-5(3,4)-pyridina-1(1,3)-benzenacyclodecaphan-3-one], the EC50 was in the range of 1 to 1000 nM in experiment [1] and 1 to 100 nM on TGFBR2.
Taken in the same sequence, the figures for `Nc1ncc2nc1C(=O)Nc1cnccc1NCCOCCOCCOCCOc1cccc-2c1` [Compound 7, 2^5-amino-9,12,15,18-tetraoxa-4,6-diaza-2(2,6)-pyrazina-5(3,4)-pyridina-1(1,3)-benzenacyclooctadecaphan-3-one] were over 5000 nM and over 1000 nM.
Turning to `Nc1ncc2nc1C(=O)Nc1cnccc1N1CCOC(COc3cccc-2c3)C1` (stereo not drawn) [Compound 8, 5^3-amino-7-oxa-3-aza-1(4,2)-morpholina-5(2,6)-pyrazina-2(4,3)-pyridina-6(1,3)-benzenacyclooctaphan-4-one], the EC50 was 1000 to 5000 nM in experiment [1] and 100 to 1000 nM on TGFBR2.
Taken in the same sequence, the figures for `CN1CCCCCOc2cccc(c2)-c2cnc(N)c(n2)C(=O)Nc2cnccc21` [Compound 9, 2^5-amino-6-methyl-12-oxa-4,6-diaza-2(2,6)-pyrazina-5(3,4)-pyridina-1(1,3)-benzenacyclododecaphan-3-one] were 1 to 1000 nM and 1 to 100 nM.
For `Cc1cc2cc(c1)-c1cnc(N)c(n1)C(=O)Nc1cnccc1N(C)CCCO2` [Compound 10, 2^5-amino-1^5,6-dimethyl-10-oxa-4,6-diaza-2(2,6)-pyrazina-5(3,4)-pyridina-1(1,3)-benzenacyclodecaphan-3-one], the values for the EC50 (in experiment [1]; on TGFBR2) were 1 to 1000 nM and 1 to 100 nM, respectively.
With `CN1CCOc2cccc(c2)-c2cnc(N)c(n2)C(=O)Nc2cnccc21` [Compound 11, 2^5-amino-6-methyl-9-oxa-4,6-diaza-2(2,6)-pyrazina-5(3,4)-pyridina-1(1,3)-benzenacyclononaphan-3-one], the EC50 in experiment [1] lay within 1 to 1000 nM; on TGFBR2 it was 1 to 100 nM.
As to `Cc1ccc2cc1OCCCN(C)c1ccncc1NC(=O)c1nc-2cnc1N` [Compound 12, 2^5-amino-1^4,6-dimethyl-10-oxa-4,6-diaza-2(2,6)-pyrazina-5(3,4)-pyridina-1(1,3)-benzenacyclodecaphan-3-one], the EC50 was 1 to 1000 nM in experiment [1] and 1 to 100 nM at TGFBR2.
Consider `CCN1CCCOc2cccc(c2)-c2cnc(N)c(n2)C(=O)Nc2cnccc21` [Compound 13, 2^5-amino-6-ethyl-10-oxa-4,6-diaza-2(2,6)-pyrazina-5(3,4)-pyridina-1(1,3)-benzenacyclodecaphan-3-one], for which the EC50 in experiment [1] was in the range of 1 to 1000 nM; on TGFBR2 it was 100 to 1000 nM.
Compound `Nc1ncc2nc1C(=O)Nc1cnccc1N1CCC(CCOc3cccc-2c3)C1` (stereo not drawn) [Compound 24, 2^5-amino-9-oxa-4-aza-2(2,6)-pyrazina-5(3,4)-pyridina-6(1,3)-pyrrolidina-1(1,3)-benzenacyclononaphan-3-one] displayed an EC50 in experiment [1] of over 5000 nM.
As to `CN1CCCC(=O)Nc2cccc(c2)-c2cnc(N)c(n2)C(=O)Nc2cnccc21` [Compound 28, 2^5-amino-6-methyl-4,6,11-triaza-2(2,6)-pyrazina-5(3,4)-pyridina-1(1,3)-benzenacycloundecaphane-3,10-dione], the EC50 in experiment [1] is over 5000 nM.
The compound `Nc1ncc2nc1C(=O)Nc1cnccc1S(=O)(=O)CCCOc1ccc(Br)c-2c1` [Compound 52, 2^5-amino-1^6-bromo-10-oxa-6-thia-4-aza-2(2,6)-pyrazina-5(3,4)-pyridina-1(1,3)-benzenacyclodecaphan-3-one 6,6-dioxide] displayed an EC50 in experiment [1] of over 5000 nM.
In experiment [1], `CN1CCCN(C)c2ccncc2NC(=O)c2nc(cnc2N)-c2ccc(OCCCN)c(c2)C1=O` [Compound 54, 2^5-amino-1^4-(3-aminopropoxy)-6,10-dimethyl-4,6,10-triaza-2(2,6)-pyrazina-5(3,4)-pyridina-1(1,3)-benzenacycloundecaphane-3,11-dione] came in with an EC50 of over 5000 nM.
